Measurements published in patent US7015345B2, “Propionic acid derivatives” (Asahi Kasei Pharma Corporation, priority 2002, dated 2006).
Where two headings read alike, the source gives them in different places.

What was measured:
Zucker rats = test: Liver triglyceride contents in Zucker rats; format: in vivo; details: Rattus norvegicus, 336 h, read-out: Triglyceride reducing rate (%); for inhibition in vivo at 1 mg/kg: 1 mg/kg once a day for 2 weeks
Method: Measurement of Liver Triglyceride Contents in Zucker Rats
To Zucker rats, a vehicle (0.5% MC), a compound of the present invention or fenofibrate (Sigma) was administered once a day for 2 weeks. The livers were isolated on the next day of the final administration, and amounts of triglyceride in the livers were determined. Triglyceride was extracted by adding 5 ml of a mixture of hexane and isopropanol (2:1, V/V) to 100 mg of liver, homogenizing the liver using Polytron homogenizer, then sufficiently stirring and centrifuging the homogenate at 2000 g for 10 minutes at room temperature. The amount of triglyceride in the solution layer was measured.

[1] = test system: hamsters fed with high cholesterol diet; test: Total plasma cholesterol and non-HDL cholesterol reducing action in hamster fed high cholesterol diet; format: in vivo; details: Mesocricetus auratus, 192 h, hamsters on high cholesterol diet, 10 mg/kg oral once a day for one week, plasma on 8th day
Method: Test for Measuring Total Plasma Cholesterol Reducing Action and Non-HDL Cholesterol (VLDL Cholesterol+LDL Cholesterol) Reducing Action in Hamster
A test compound (10 mg/kg) was administered once a day for one week to hamsters fed with high cholesterol diet (CE-2 (Clea Japan)+1% cholesterol+10% coconut oil) for five days. The plasma cholesterol level and the plasma HDL cholesterol level were measured immediately before the start of the administration of the test sample or vehicle on the 1st day, and the hamsters were divided into groups so that the groups gave no significant value of initial levels of the both measurements. Each of the test samples was dissolved in a 0.5% methylcellulose (MC) solution and orally administered. A 0.5% methylcellulose (MC) solution was orally administered to the hamsters as a vehicle control group. A blood sample was collected on the 8th day, and the plasma cholesterol level and the plasma HDL cholesterol level were measured. The total cholesterol reducing rate was obtained by using the following equation. [formula]
Further, non-HDL cholesterol level (LDL cholesterol level+VLDL cholesterol level) was calculated as (Total cholesterol level−HDL cholesterol level), and the reducing rate thereof was calculated by using the following equation. [formula]

db/db mice = test: Hypoglycemic action and triglyceride-decreasing action in db/db mice; format: in vivo; details: Mus musculus, 360 h; for inhibition in vivo at 10 mg/kg: 10 mg/kg oral once a day for 2 weeks; for inhibition in vivo at 1 mg/kg: 1 mg/kg oral once a day for 2 weeks; for inhibition in vivo at 3 mg/kg: 3 mg/kg oral once a day for 2 weeks
Method: Test for Measuring Hypoglycemic Action and Triglyceride-Decreasing Action in db/db Mice
Each of test compounds was administered once a day for 2 weeks to db/db mice genetically presenting pathological conditions of obesity, hyperglycemia, and hyperlipidemia. Blood was collected from the mice immediately before the start of administration of a test sample or a vehicle on the first day. Plasma glucose levels and triglyceride levels were measured, and the mice were divided into groups so that average glucose levels and triglyceride levels gave no significant value among the groups. All the test samples were suspended in a 0.5% methylcellulose (MC) solution and orally administered. For a vehicle-administered control group, a 0.5% MC solution was orally administered. Blood samples were collected from the mice on the 15th day, and plasma glucose levels and triglyceride levels were measured. A hypoglycemic rate and triglyceride-reducing rate were calculated by using the following equations.

[2] = test system: 3T3-L1 precursor adipocytes; test: Uptake of glucose by adipocytes ([3H]-2-deoxy-glucose uptake); format: cell-based; details: Mus musculus, 100 nM compound, 4 to 5 days culture, 100 nM insulin stimulation, relative to 10 μM rosiglitazone taken as 100%, read-out: Amount of glucose uptake (%)
Method: (§1) Test for Uptake of Glucose By Adipocytes and Test for Triglyceride Accumulation in Adipocytes
According to the method of Mukherjee et al. (Mol. Endocrinol, 14, 1425–1433, 2000), a glucose uptake experiment was performed by using cultured cells. 3T3-L1 precursor adipocytes were cultured for 4 to 5 days in the presence of a test compound, and then stimulated with 100 nM insulin, and then the amount of [^3H]-2-deoxy-glucose (2DG) uptake by the cells was measured. The amount of glucose uptake provided after the treatment with 100 nM of each compound was measured, and represented as a relative value based on the amount of glucose uptake provided after the treatment with 10 μM rosiglitazone, which was taken as 100%.

[3] = test system: 3T3-L1 precursor adipocytes; test: Triglyceride accumulation in adipocytes; format: cell-based; details: Mus musculus, 100 nM compound, 4 to 5 days culture, relative to 10 μM rosiglitazone taken as 100%, read-out: Amount of accumulated triglyceride (%)
Method: as §1
Further, 3T3-L1 precursor adipocytes were cultured for 4 to 5 days in the presence of a test compound, and then the amount of triglyceride in the cells was measured according to the method of Shibata T et al. (Eur. J. Pharmacol., 364 (2–3), 211–219, 1999). The amount of accumulated triglyceride provided after the treatment with 100 nM of each compound was measured, and represented as a relative value based on the amount of accumulated triglyceride provided after the treatment with 10 μM rosiglitazone, which was taken as 100%.

[4] = non-HDL = total cholesterol - HDL cholesterol, read-out: Non-HDL cholesterol reducing rate (%)
[5] = read-out: Total cholesterol reducing rate (%)
[6] = plasma glucose on 15th day vs vehicle, read-out: Hypoglycemic rate (%)
[7] = plasma triglyceride on 15th day vs vehicle, read-out: Triglyceride reducing rate (%)

| Structure (SMILES) | inhibition in vivo at 10 mg/kg (Zucker rats; 10 mg/kg once a day for 2 weeks) | inhibition in vivo at 10 mg/kg [1, 4] | inhibition in vivo at 10 mg/kg [1, 5] | inhibition in vivo at 10 mg/kg (db/db mice; [6]) | inhibition in vivo at 10 mg/kg (db/db mice; [7]) | Emax at 0.1 µM [2] | Emax at 0.1 µM [3] | inhibition in vivo at 1 mg/kg (Zucker rats) | inhibition in vivo at 1 mg/kg (db/db mice; [6]) | inhibition in vivo at 1 mg/kg (db/db mice; [7]) | inhibition in vivo at 3 mg/kg (db/db mice; [6]) | inhibition in vivo at 3 mg/kg (db/db mice; [7]) | inhibition in vivo at 100 mg/kg (Zucker rats; 100 mg/kg once a day for 2 weeks) |
| --- | --- | --- | --- | --- | --- | --- | --- | --- | --- | --- | --- | --- | --- |
| CCCCCCCN(CCOc1ccc(CC(OCC)C(=O)O)cc1)C(=O)Nc1ccc(F)cc1F (centres unmarked) [Example 2, 3-(4-{2-[3-(2,4-difluorophenyl)-1-heptylureido]ethoxy}phenyl)-2-ethoxypropionic acid] | 19% | 29% | 30% | 34% | 53% | 95% | 90% | – | – | – | – | – | – |
| CCCCCCCN(CCOc1ccc(CC(OCC)C(=O)O)cc1)C(=O)OC (centres unmarked) [Example 56, 2-ethoxy-3-{4-[2-(N-heptyl-N-methoxycarbonylamino)ethoxy]phenyl}propionic acid] | – | 40% | 39% | – | – | 90% | 85% | 42% | 26% | 49% | – | – | – |
| CCCCCCCN(CCOc1ccc(CC(OCC)C(=O)O)cc1)C(=O)OCc1ccccc1 (centres unmarked) [Example 57, 3-{4-[2-(N-benzyloxycarbonyl-N-heptylamino)ethoxy]phenyl}-2-ethoxypropionic acid] | – | 43% | 41% | – | – | 80% | 75% | 41% | – | – | 35% | 46% | – |
| CCCCCCCN(CCOc1ccc(CC(OCC)C(=O)O)cc1)C(=O)OCCC (centres unmarked) [Example 59, 2-ethoxy-3-{4-[2-(N-heptyl-N-propoxycarbonylamino)ethoxy]phenyl}propionic acid] | – | 35% | 37% | – | – | 88% | 77% | 40% | – | – | 18% | 21% | – |
| CCCCCCCN(CCOc1ccc(CC(OCC)C(=O)O)cc1)C(=O)OC(C)C (centres unmarked) [Example 66, 2-ethoxy-3-{4-[2-(N-heptyl-N-isopropyloxycarbonylamino)ethoxy]phenyl}propionic acid] | – | 42% | 40% | – | – | 95% | 80% | 44% | 32% | 57% | – | – | – |
| C#CCOC(=O)N(CCCCCCC)CCOc1ccc(CC(OCC)C(=O)O)cc1 (centres unmarked) [Example 67, 2-ethoxy-3-(4-{2-[N-heptyl-N-(2-propynyloxycarbonyl)amino]ethoxy}phenyl)propionic acid] | – | 32% | 34% | – | – | 91% | 92% | 47% | 17% | 26% | – | – | – |
| CCCCCCCN(CCOc1ccc(CC(OCC)C(=O)O)cc1)C(=O)OCC(C)C (centres unmarked) [Example 71, 2-ethoxy-3-{4-[2-(N-heptyl-N-isobutyloxycarbonylamino)ethoxy]phenyl}propionic acid] | – | 10% | 12% | – | – | 83% | 85% | 28% | 28% | 40% | – | – | – |
| C=CCCOC(=O)N(CCCCCCC)CCOc1ccc(CC(OCC)C(=O)O)cc1 (centres unmarked) [Example 73, 3-(4-{2-[N-(3-butenyloxycarbonyl)-N-heptylamino]ethoxy}phenyl)-2-ethoxypropionic acid] | – | 45% | 45% | – | – | 99% | 96% | 34% | – | – | 30% | 43% | – |
| CCCCCCCN(CCOc1ccc(CC(OCC)C(=O)O)cc1)C(=O)OCC (centres unmarked) [Example 75, 2-ethoxy-3-{4-[2-(N-ethoxycarbonyl-N-heptylamino)ethoxy]phenyl}propionic acid] | – | 46% | 48% | – | – | 98% | 98% | 32% | – | – | 38% | 32% | – |
| CCOC(Cc1ccc(OCCN(CCOc2ccccc2)C(=O)OC(C)C)cc1)C(=O)O (centres unmarked) [Example 92, 2-ethoxy-3-(4-{2-[N-isopropoxycarbonyl-N-(2-phenoxyethyl)amino]ethoxy}phenyl)propionic acid] | – | 10% | 8% | – | – | 90% | 92% | 2% | – | – | 4% | 12% | – |
| CCCCCCCN(CCOc1ccc(CC(OCC)C(=O)OCC)cc1)C(=O)OCC(F)(F)F (centres unmarked) [Example 96, 2-ethoxy-3-(4-{2-[N-heptyl-N-(2,2,2-trifluoroethoxycarbonyl)amino]ethoxy}phenyl)propionic acid ethyl ester] | – | 23% | 24% | – | – | 85% | 80% | 39% | – | – | 38% | 31% | – |
| CCCCOCCN(CCOc1ccc(CC(OCC)C(=O)O)cc1)C(=O)OCCC (centres unmarked) [Example 115, 3-(4-{2-[N-(2-butoxyethyl)-N-propoxycarbonylamino]ethoxy}phenyl)-2-ethoxypropionic acid] | – | 17% | 17% | – | – | 98% | 95% | 42% | – | – | 11% | 18% | – |
| CCCCCCCN(CCOc1ccc(CC(OC(C)C)C(=O)O)cc1)C(=O)OC (centres unmarked) [Example 118, 3-{4-[2-(N-heptyl-N-methoxycarbonylamino)ethoxy]phenyl}-2-isopropoxypropionic acid] | – | 50% | 45% | – | – | 60% | 55% | 47% | 42% | 51% | – | – | – |
| CC(C)OC(=O)C(C)(C)Oc1ccc(C(=O)c2ccc(Cl)cc2)cc1 [Fenofibrate, fenofibrate, reference compound] | – | – | – | – | – | – | – | – | – | – | – | – | 22% |
